The results in this text go back to US6482921B1, “Uridyl peptide antibiotic (UPA) derivatives, their synthesis and use” (Essential Therapeutics, Inc., priority 1999, dated 2002).

Values after ≈ are worked out from the molar mass of the structure shown. Bounds are passed on as bounds.

Experiment [1] deals with Staphylococcus aureus ATCC 29213. The experiment can be described thus: MIC broth microdilution, S. aureus ATCC 29213 (wild type). In kind it is cell-based. Particulars: S. aureus ATCC 29213.
For experiment [2], the system named is Pseudomonas aeruginosa PAM 1323. The experiment can be described thus: MIC broth microdilution, P. aeruginosa PAM 1323 (medium level UPA resistance). In kind it is cell-based.
For experiment [3], the system named is Pseudomonas aeruginosa PAM 1020. The experiment can be described thus: MIC broth microdilution, P. aeruginosa PAM 1020 (wild type). It is filed as cell-based. To be noted: P. aeruginosa PAM 1020. (In general: Dilution methods test growth across graded concentrations, often in twofold steps.)
Experiment [4] deals with Pasteurella multocida pm002. The experiment can be described thus: MIC broth microdilution, P. multocida pm002 (wild type). In kind it is cell-based.
Experiment [5] deals with Staphylococcus aureus 8325-4. Put plainly: MIC broth microdilution, S. aureus 8325-4 (wild type). In kind it is cell-based. To be noted: S. aureus 8325-4.
Experiment [6] deals with Escherichia Coli MC 4100 AcrAB. Put plainly: MIC broth microdilution, E. coli MC 4100 AcrAB (ΔAcrAB). It is filed as cell-based. Particulars: E. coli AcrAB.
The subject of experiment [7] is Pseudomonas aeruginosa PAM 1154. The experiment can be described thus: MIC broth microdilution, P. aeruginosa PAM 1154 (OprM::Hg). Particulars: P. aeruginosa PAM 1154 OprM::Hg. It is filed as cell-based.
For the next experiment, the system named is Escherichia Coli MC 4100. Put plainly: MIC broth microdilution, E. coli MC 4100 (wild type). To be noted: E. coli MC 4100. It is filed as cell-based.
The test system of experiment [8] is Mycobacterium fortuitum ATCC 6841. Put plainly: MIC broth microdilution, M. fortuitum ATCC 6841. Particulars: 72 hours at 35° C., CAMHB.
The test system of experiment [9] is Escherichia Coli MC 4100 AcrAB UPA3r. The experiment can be described thus: MIC broth microdilution, E. coli MC 4100 AcrAB UPA3r (ΔAcrAB, UPA resistant). It is filed as cell-based. To be noted: E. coli AcrAB UPA3^r.
Experiment [10] deals with Pseudomonas aeruginosa PAM 1135. The experiment can be described thus: MIC broth microdilution, P. aeruginosa PAM 1135 (high level UPA resistance). It is filed as cell-based. Particulars: P. aeruginosa PAM 1135 UPA1^r.
The subject of experiment [11] is Mycobacterium smegmatis ATCC 19420. The experiment can be described thus: MIC broth microdilution, M. smegmatis ATCC 19420. To be noted: 72 hours at 35° C., CAMHB.

In the case of `CC(C)CC(N)C(=O)N(C)C(C)C(NC(=O)C(Cc1ccc(F)cc1)NC(=O)NC(Cc1c[nH]c2ccccc12)C(=O)O)C(=O)NCC1CC(O)C(n2ccc(=O)[nH]c2=O)O1` [Compound 117, 1-[5′-[(2S,3S)-N^2-[N-[[(1S)-1-Carboxy-2-indol-3-ylethyl]carbamoyl]-L-4-fluorophenylalanyl]-N^3-L-leucyl-N^3-methyl-2,3-diaminobutyramido]-3′,5′-dideoxy-α-L-arabinofuranosyl]uracil], the “MIC (μg/ml) Broth microdilution” value in experiment [1] is >512 µg/mL; in experiment [2] it was >512 µg/mL; in experiment [3] it was 64 µg/mL (≈ 75.3 µM); in experiment [4], 256 µg/mL (≈ 301 µM); in [5], >512 µg/mL; in experiment [6] it was <1 µg/mL. The “MIC (μg/ml) Broth microdilution” value in experiment [7] is 64 µg/mL (≈ 75.3 µM); with Escherichia Coli MC 4100 it was >512 µg/mL; in experiment [9], 32 µg/mL (≈ 37.7 µM); in experiment [10], >512 µg/mL. Further, the “MIC Broth microdilution M. fortuitum ATCC 6841” value in [8] was determined as 64 µg/mL (≈ 75.3 µM). For the same molecule, the “MIC Broth microdilution M. smegmatis ATCC19420” value in [11] is 8 µg/mL (≈ 9.41 µM).

Take `C[C@@H]([C@H](NC(=O)[C@H](Cc1ccccc1)NC(=O)N[C@@H](Cc1c[nH]c2ccccc12)C(=O)O)C(=O)NC[C@H]1C[C@@H](O)[C@H](n2ccc(=O)[nH]c2=O)O1)N(C)C(=O)CN` [Compound 128, 1-[5′-[(2S,3S)-N^2-[N-[[(1S)-1-Carboxy-2-indol-3-ylethyl]carbamoyl]-L-phenylalanyl]-N^3-glycyl-N^3-methyl-2,3-diaminobutyramido]-3′,5′-dideoxy-α-L-arabinofuranosyl]uracil]: the “MIC (μg/ml) Broth microdilution” value is >512 µg/mL in [1]; >512 µg/mL in experiment [2]; 8 µg/mL (≈ 10.3 µM) in experiment [3]; 64 µg/mL (≈ 82.5 µM) in experiment [4]; 256 µg/mL (≈ 330 µM) in experiment [5]; 2 µg/mL (≈ 2.58 µM) in experiment [6]. The “MIC (μg/ml) Broth microdilution” value was <1 µg/mL in experiment [7], 256 µg/mL (≈ 330 µM) in the experiment with Escherichia Coli MC 4100, 16 µg/mL (≈ 20.6 µM) in experiment [9] and >512 µg/mL in [10]. For the same molecule, in experiment [8], the “MIC Broth microdilution M. fortuitum ATCC 6841” value is 64 µg/mL (≈ 82.5 µM). Besides, the “MIC Broth microdilution M. smegmatis ATCC19420” value in [11] worked out at 4 µg/mL (≈ 5.16 µM).

`CC(N)C(=O)N(C)C(C)C(NC(=O)C(Cc1csc2ccccc12)NC(=O)NC(Cc1ccc(O)cc1)C(=O)O)C(=O)NCC1CC(O)C(n2ccc(=O)[nH]c2=O)O1` [Compound 130, 1-[5′-[(2S,3S)-N^3-L-Alanyl-N^2-[N-[[(1S)-1-carboxy-4-hydroxyphenethyl]carbamoyl]-L-benzothienylalanyl]-N^3-methyl-2,3-diaminobutyramidol-3′,5′-dideoxy-α-L-arabinofuranosyl]uracil]: the “MIC (μg/ml) Broth microdilution” value in [1] is 128 µg/mL (≈ 156 µM); in [2], >512 µg/mL; in experiment [3], 64 µg/mL (≈ 77.8 µM); in [4], 512 µg/mL (≈ 622 µM); in experiment [5], 256 µg/mL (≈ 311 µM); in experiment [6], 8 µg/mL (≈ 9.72 µM). Further, the “MIC (μg/ml) Broth microdilution” value was 16 µg/mL (≈ 19.4 µM) in experiment [7], 64 µg/mL (≈ 77.8 µM) in the experiment with Escherichia Coli MC 4100, 16 µg/mL (≈ 19.4 µM) in [9] and >512 µg/mL in experiment [10]. Further, the “MIC Broth microdilution M. fortuitum ATCC 6841” value in experiment [8] was 32 µg/mL (≈ 38.9 µM). The “MIC Broth microdilution M. smegmatis ATCC19420” value in experiment [11] was 8 µg/mL (≈ 9.72 µM).

As for `CC(N)C(=O)N(C)C(C)C(NC(=O)C(Cc1ccc(I)cc1)NC(=O)NC(Cc1ccc(O)cc1)C(=O)O)C(=O)NCC1CC(O)C(n2ccc(=O)[nH]c2=O)O1` [Compound 134, 1-[5′-[(2S,3S)-N^3-L-Alanyl-N^2-[N-[[(1S)-1-carboxy-4-hydroxyphenethyl]carbamoyl]-L-4-iodophenylalanyl]-N^3-methyl-2,3-diaminobutyramido]-3′,5′-dideoxy-α-L-arabinofuranosyl]uracil], the “MIC (μg/ml) Broth microdilution” value in experiment [1] is 512 µg/mL (≈ 574 µM); in experiment [2], >512 µg/mL; in experiment [3] it was 256 µg/mL (≈ 287 µM); in experiment [4], >512 µg/mL; in experiment [5] it was 512 µg/mL (≈ 574 µM); in experiment [6], <1 µg/mL. For the same molecule, the “MIC (μg/ml) Broth microdilution” value in experiment [7] is 32 µg/mL (≈ 35.8 µM); in the experiment with Escherichia Coli MC 4100, 128 µg/mL (≈ 143 µM); in experiment [9], 32 µg/mL (≈ 35.8 µM); in experiment [10], >512 µg/mL. Also, the “MIC Broth microdilution M. fortuitum ATCC 6841” value in experiment [8] is 32 µg/mL (≈ 35.8 µM). Further, in experiment [11], the “MIC Broth microdilution M. smegmatis ATCC19420” value amounted to 16 µg/mL (≈ 17.9 µM).

On to `CC(N)C(=O)N(C)C(C)C(NC(=O)C(Cc1ccc(Cl)cc1)NC(=O)NC(Cc1ccc(O)cc1)C(=O)O)C(=O)NCC1CC(O)C(n2ccc(=O)[nH]c2=O)O1` [Compound 135, 1-[5′-[(2S,3S)-N^3-L-Alanyl-N^2-[N-[[(1S)-1-carboxy-4-hydroxyphenethyl]carbamoyl]-L-4-chlorophenylalanyl]-N^3-methyl-2,3-diaminobutyramido]-3′,5′-dideoxy-α-L-arabinofuranosyl]uracil], for which the “MIC (μg/ml) Broth microdilution” value in experiment [1] was 512 µg/mL (≈ 639 µM); in [2], >512 µg/mL; in experiment [3], 64 µg/mL (≈ 79.9 µM); in experiment [4], 512 µg/mL (≈ 639 µM); in [5] it was >512 µg/mL; in [6] it was <1 µg/mL. The “MIC (μg/ml) Broth microdilution” value in experiment [7] is 16 µg/mL (≈ 20 µM); against Escherichia Coli MC 4100, 8 µg/mL (≈ 9.98 µM); in [9], 2 µg/mL (≈ 2.5 µM); in experiment [10] it was >512 µg/mL. Also, in experiment [8], the “MIC Broth microdilution M. fortuitum ATCC 6841” value is 64 µg/mL (≈ 79.9 µM). Moreover, the “MIC Broth microdilution M. smegmatis ATCC19420” value in experiment [11] was found to be 16 µg/mL (≈ 20 µM).

With `CC(N)C(=O)N(C)C(C)C(NC(=O)C(CC1CCCCC1)NC(=O)NC(Cc1c[nH]c2ccccc12)C(=O)O)C(=O)NCC1CC(O)C(n2ccc(=O)[nH]c2=O)O1` [Compound 136, 1-[5-(2S 3S)-N^3-L-Alanyl-N^2-[N-[[(1S)-1-carboxy-2-indol-3-ylethyl]carbamoyl]-L-cyclohexylalanyl]-N^3-methyl-2,3-diaminobutyramido]-3′,5′-dideoxy-α-L-arabinofuranosyl]uracil], the “MIC (μg/ml) Broth microdilution” value is >512 µg/mL in experiment [1]; >512 µg/mL in [2]; 128 µg/mL (≈ 161 µM) in experiment [3]; >512 µg/mL in experiment [4]; >512 µg/mL in [5]; 4 µg/mL (≈ 5.03 µM) in experiment [6]. For the same molecule, the “MIC (μg/ml) Broth microdilution” value in experiment [7] is 64 µg/mL (≈ 80.4 µM); with Escherichia Coli MC 4100, >512 µg/mL; in experiment [9], 64 µg/mL (≈ 80.4 µM); in experiment [10] it was >512 µg/mL. Further, the “MIC Broth microdilution M. fortuitum ATCC 6841” value in [8] came out at 128 µg/mL (≈ 161 µM). Also, the “MIC Broth microdilution M. smegmatis ATCC19420” value in experiment [11] was 8 µg/mL (≈ 10.1 µM).

Regarding `CSCCC(N)C(=O)N(C)C(C)C(NC(=O)C(C)NC(=O)NC(Cc1c[nH]c2ccccc12)C(=O)O)C(=O)NCC1CC(O)C(n2ccc(=O)[nH]c2=O)O1` [Compound 168, 1-[5′-[(2S,3S)-N^2-[N-[[(1S)-1-Carboxy-2-indol-3-ylethyl]carbamoyl]-L-alanyl]-N^3-L-methionyl-N^3-methyl-2,3-diaminobutyramido]-3′,5′-dideoxy-α-L-arabinofuranosyl]uracil], the “MIC (μg/ml) Broth microdilution” value is >512 µg/mL in experiment [1]; >512 µg/mL in experiment [2]; 64 µg/mL (≈ 82.7 µM) in experiment [3]; 256 µg/mL (≈ 331 µM) in [4]; >512 µg/mL in [5]; 4 µg/mL (≈ 5.17 µM) in experiment [6]. The “MIC (μg/ml) Broth microdilution” value in [7] is 8 µg/mL (≈ 10.3 µM); in the experiment on Escherichia Coli MC 4100 it was >512 µg/mL; in [9] it was 256 µg/mL (≈ 331 µM); in experiment [10] it was >512 µg/mL.

`CC(C)[C@H](NC(=O)N[C@@H](Cc1c[nH]c2ccccc12)C(=O)O)C(=O)N[C@H](C(=O)NC[C@H]1C[C@@H](O)[C@H](n2ccc(=O)[nH]c2=O)O1)[C@H](C)N(C)C(=O)[C@H](C)N` [Compound 169, 1-[5′-[(2S,3S)-N^3-L-Alanyl-N^2-[N-[[(1S)-1-carboxy-2-indol-3-ylethyl]carbamoyl]-L-valinyl]-N^3-methyl-2,3-diaminobutyramido]-3′,5′-dideoxy-α-L-arabinofuranosyl]uracil]: the “MIC (μg/ml) Broth microdilution” value in [1] was >512 µg/mL; in experiment [2], 64 µg/mL (≈ 86.3 µM); in experiment [3], 128 µg/mL (≈ 173 µM); in [4], 128 µg/mL (≈ 173 µM); in experiment [5] it was >512 µg/mL; in experiment [6], 2 µg/mL (≈ 2.7 µM). In addition, the “MIC (μg/ml) Broth microdilution” value is 128 µg/mL (≈ 173 µM) in experiment [7], 256 µg/mL (≈ 345 µM) against Escherichia Coli MC 4100, 32 µg/mL (≈ 43.1 µM) in experiment [9] and >512 µg/mL in experiment [10].
